Assay [1] has as its target wild-type human cardiac sodium channel, hNav1.5 (Homo sapiens, UniProt Q14524). Briefly: Peak INa screening assay (tonic block and use-dependent block). Type of assay: cell-based. The method, then: The cardiac late sodium current (Late INa) and peak sodium current (Peak INa) assays are performed on an automated electrophysiology platform, QPatch 16X or QPatch HT (Sophion Bioscience, Copenhagen, Denmark) using the whole cell patch clamp technique to measure currents through the cell membrane. The assay uses an HEK293 (human embryonic kidney) cell line heterologously expressing the wild-type human cardiac sodium channel, hNav1.5, purchased from Millipore (Billerica, Mass.). No beta subunits were coexpressed with the Na channel alpha subunit. Cells are maintained with standard tissue culture procedures and stable channel expression is maintained with 400 μg/mL Geneticin in the culture medium. Experiments are carried out at 23-25° C.
For both the Late INa and Peak INa assays, series resistance compensation is set to 100% and series resistance and whole-cell compensation are performed automatically. Currents are digitized at 25 kHz and low-pass filtered at 5 kHz and stored in the Sophion Bioscience Oracle database (Sophion Bioscience, Copenhagen, Denmark). Analysis is performed using QPatch Assay software and data are compiled in Excel 2010 (Microsoft, Seattle, Wash., U.S.A.).
Compound stocks are routinely made by the Gilead Sample Bank in vials to 10 mM in dimethyl sulfoxide (DMSO). In some cases, when compounds are not soluble in DMSO, they are made in 100% ethanol. Stocks are sonicated as necessary. The extracellular solution for screening Late INa is composed of: 140 mM NaCl, 4 mM KCl, 1.8 mM CaCl2, 1 mM MgCl2, 10 mM HEPES and 10 mM Dextrose with pH adjusted to 7.35 using NaOH. The intracellular solution contains: 105 mM CsF, 20 mM CsCl, 10NaF, 2 mM EGTA, 10 mM HEPES and 10 mM Dextrose with pH adjusted to 7.35 with CsOH. Compounds are diluted in extracellular solution using a MicroLab Nimbus (Hamilton Robotics, Reno, Nev.) to between 0.3 and 3 μM in glass vials and transferred to glass well plates before robotic addition to the cells. The 0 mM Na extracellular solution (0Na-ECF) used at the end of each experiment for the Late INa and Peak INa assays to measure baseline current contains: 140 Choline-Cl; 4 mM KCl, 1.8 mM CaCl2; 1 mM MgCl2; 10 mM HEPES and 10 mM Dextrose with pH was adjusted to 7.35 with CsOH.
Compounds were evaluated for their effect Nav1.5 Peak INa. It is contemplated that the compounds of Formula I avoid significant block of peak INa. Since the peak INa in the cells used herein can be very large, introducing artifacts in the recording, the concentration of Na^+ in the bath can be reduced to 40 mM by isosmotic replacement of Na^+ with Choline (see below).
Tonic Block (TB) of Peak INa was measured using a voltage step to −20 mV from a holding potential of −100 mV at a low stimulation frequency of 0.1 Hz. Use-Dependent Block (UDB) of Peak INa was measured during pulse number 50 of a pulse train (−20 mV, 20 ms, 50 pulses, 3 Hz) from a holding potential of −100 mV.
The extracellular solution for screening Peak INa is composed of: 40 mM NaCl, 100 mM Choline-Cl, 4 mM KCl, 1.8 mM CaCl2, 1 mM MgCl2 10 mM HEPES and 10 mM Dextrose with pH adjusted to 7.35 using NaOH. The intracellular solution used for the Peak INa assay is the same as outlined for the Late INa assay (see above).
After establishing the whole cell recording configuration, channels were stimulated to open with low frequency (0.1 Hz) so that the recording can be monitored and the extent to which the recording has stabilized can be assessed.
The test compound is then applied at 1 or 3 μM and was added 2 times at 60 second intervals. After the second compound addition, a 200 second wait period was imposed to allow for equilibration. Voltage protocols for TB and UDB are were performed in the absence and presence of compound and TB and UDB are calculated with respect to the compound free condition. Both TB and UDB were analyzed by incorporating rundown correction for the peak INa.

The next assay deals with T1, hNaV1.2 (SCN2A) (Homo sapiens, UniProt Q99250).
T1 construct: expressed in transfected cells
T1 sequence (Q99250 whole entry): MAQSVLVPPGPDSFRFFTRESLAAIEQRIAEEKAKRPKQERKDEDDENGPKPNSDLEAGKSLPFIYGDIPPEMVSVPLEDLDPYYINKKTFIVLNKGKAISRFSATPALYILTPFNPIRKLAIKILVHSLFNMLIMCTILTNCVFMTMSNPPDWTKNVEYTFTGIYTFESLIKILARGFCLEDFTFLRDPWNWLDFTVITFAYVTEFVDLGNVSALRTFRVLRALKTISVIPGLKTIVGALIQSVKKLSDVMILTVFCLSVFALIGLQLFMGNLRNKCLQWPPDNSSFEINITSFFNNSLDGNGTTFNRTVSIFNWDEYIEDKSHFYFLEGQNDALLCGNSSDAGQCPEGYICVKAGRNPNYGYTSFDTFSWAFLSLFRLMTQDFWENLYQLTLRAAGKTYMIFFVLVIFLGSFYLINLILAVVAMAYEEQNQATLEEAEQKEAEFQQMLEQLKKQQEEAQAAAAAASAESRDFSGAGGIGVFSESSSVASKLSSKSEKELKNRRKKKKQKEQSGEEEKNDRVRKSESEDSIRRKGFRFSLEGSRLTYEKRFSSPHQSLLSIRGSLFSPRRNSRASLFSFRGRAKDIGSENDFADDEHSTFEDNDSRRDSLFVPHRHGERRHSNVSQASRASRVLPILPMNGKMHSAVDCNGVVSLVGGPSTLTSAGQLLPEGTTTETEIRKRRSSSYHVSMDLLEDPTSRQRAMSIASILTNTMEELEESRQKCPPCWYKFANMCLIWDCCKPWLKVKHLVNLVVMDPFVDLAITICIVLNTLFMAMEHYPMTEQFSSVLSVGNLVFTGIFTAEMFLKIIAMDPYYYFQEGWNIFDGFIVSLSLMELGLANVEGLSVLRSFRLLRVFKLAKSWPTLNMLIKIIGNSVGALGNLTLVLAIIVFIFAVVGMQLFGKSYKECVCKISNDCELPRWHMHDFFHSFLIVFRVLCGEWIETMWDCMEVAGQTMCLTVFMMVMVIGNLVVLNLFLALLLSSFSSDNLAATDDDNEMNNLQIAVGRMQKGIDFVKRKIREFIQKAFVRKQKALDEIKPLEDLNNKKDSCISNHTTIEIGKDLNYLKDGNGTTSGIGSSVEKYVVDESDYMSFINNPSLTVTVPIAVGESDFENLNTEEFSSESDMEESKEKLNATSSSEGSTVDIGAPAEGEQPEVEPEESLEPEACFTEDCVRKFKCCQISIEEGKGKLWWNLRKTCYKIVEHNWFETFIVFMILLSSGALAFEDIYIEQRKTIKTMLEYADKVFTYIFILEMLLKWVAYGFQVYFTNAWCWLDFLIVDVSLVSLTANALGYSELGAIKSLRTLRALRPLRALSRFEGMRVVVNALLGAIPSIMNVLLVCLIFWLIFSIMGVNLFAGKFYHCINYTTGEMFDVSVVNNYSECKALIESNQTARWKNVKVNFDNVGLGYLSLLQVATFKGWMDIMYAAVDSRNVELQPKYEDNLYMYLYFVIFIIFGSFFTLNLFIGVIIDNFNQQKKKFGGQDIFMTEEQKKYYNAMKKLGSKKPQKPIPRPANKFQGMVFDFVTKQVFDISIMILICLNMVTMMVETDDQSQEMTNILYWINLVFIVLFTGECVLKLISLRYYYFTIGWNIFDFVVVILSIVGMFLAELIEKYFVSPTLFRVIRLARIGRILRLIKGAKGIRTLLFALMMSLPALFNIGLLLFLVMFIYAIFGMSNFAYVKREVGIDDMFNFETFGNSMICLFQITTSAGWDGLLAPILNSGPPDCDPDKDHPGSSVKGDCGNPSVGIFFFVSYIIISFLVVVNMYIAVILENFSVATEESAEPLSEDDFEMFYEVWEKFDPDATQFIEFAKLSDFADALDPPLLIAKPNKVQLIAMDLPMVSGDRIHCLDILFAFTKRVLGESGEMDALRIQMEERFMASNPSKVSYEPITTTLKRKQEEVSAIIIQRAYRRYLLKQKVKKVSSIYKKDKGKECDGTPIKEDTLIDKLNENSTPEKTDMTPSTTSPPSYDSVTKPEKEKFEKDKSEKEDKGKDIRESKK
T1 sequence (Q07699 19-218 partner): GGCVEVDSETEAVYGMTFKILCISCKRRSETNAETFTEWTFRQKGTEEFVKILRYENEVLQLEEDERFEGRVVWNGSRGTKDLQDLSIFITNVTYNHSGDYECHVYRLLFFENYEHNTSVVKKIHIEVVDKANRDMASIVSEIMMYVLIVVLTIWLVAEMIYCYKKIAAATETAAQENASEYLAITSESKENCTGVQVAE
T1 sequence (O60939 30-215 partner): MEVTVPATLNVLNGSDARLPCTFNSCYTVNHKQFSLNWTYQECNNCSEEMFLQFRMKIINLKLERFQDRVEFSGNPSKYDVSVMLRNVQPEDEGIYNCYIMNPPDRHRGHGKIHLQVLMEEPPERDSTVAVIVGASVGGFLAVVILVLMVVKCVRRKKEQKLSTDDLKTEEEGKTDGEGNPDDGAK
Kind of assay: Use-dependent inhibition of the CNS Nav1.2 sodium channel. As to conditions: use-dependent block, 25 Hz, pulse 20, read-out: Nav1.2 UDB 25 Hz 10 uM. Type of assay: cell-based. The method, then:
HEK-293 cells stably expressing wild-type (WT) hNaV1.2 (SCN2A NCBI # NM_021007.2, SCN1B NCBI # NM_001037.4, SCN2B NCBI # NM_004588.2) were used to record INa. Cells are maintained with standard tissue culture procedures and stable channel expression is maintained with 800 ug/mL G418 and 3 ug/mL Puromycin in the culture medium. Unless otherwise noted, all reagents are purchased from Sigma-Aldrich (St Louis, Mo., U.S.A.).
Assays measuring Use-Dependent Block (UDB) of Nav1.2 are performed on an automated electrophysiology platform, QPatch 16X or QPatch HT (Sophion Bioscience, Copenhagen, Denmark), using the whole cell patch clamp technique to measure currents through the cell membrane. Series resistance compensation is set to 100% and series resistance and whole-cell compensation are performed automatically. Currents stored in the Sophion Bioscience Oracle database (Sophion Bioscience, Copenhagen, Denmark). Analysis is performed using QPatch Assay software and data are compiled in Excel 2010 (Microsoft, Seattle, Wash., U.S.A.).
The internal (pipette) solution consists of (in mM) 105 CsF, 10 NaF, 20 CsCl, 2 EGTA, 10 HEPES, 10 Dextrose with a pH of 7.35 and osmolarity of 300 mOsmol/kg. The external (bath) solution contains in (mM): 145 NaCl, 4 KCl, 1.8 CaCl2, 1 MgCl2, 10 dextrose, 10 HEPES, with a pH of 7.35 and osmolarity of 310 mOsmol/kg. Experiments are carried out at 23-25° C.
Compound stocks are routinely made by the Gilead Sample Bank in vials to 10 mM in dimethyl sulfoxide (DMSO). In some cases, when compounds are not soluble in DMSO, they are made in 100% ethanol. Stocks are sonicated as necessary. […]
Cells are allowed to stabilize for 10 min after establishment of the whole-cell configuration before current is measured. The test compound is applied 2 times at 60 second intervals. After the second compound addition, a 200 second wait period was imposed to allow for equilibration. Leak currents are subtracted by using an online P/4 procedure and all currents are low-pass Bessel filtered at 5 kHz and digitized at […].
Results are presented as mean percentage inhibition.
Use-dependent block of Nav1.2 peak current is measured during pulse number 20 of a voltage pulse train (0 mV, 20 ms, 20 pulses, 25 Hz) from a holding potential of −120 mV.
Currents are normalized to the peak current recorded in response to the first pulse in each frequency train. The voltage protocol for UDB was performed in the absence and presence of compound and percentage inhibition was calculated with respect to the compound free condition.

Setting [2] is: tonic block of Peak INa, 0.1 Hz, holding -100 mV, read-out: Peak TB 3 uM.
Setting [3] is: use-dependent block of Peak INa, 3 Hz, pulse 50, read-out: Peak UDB 3 Hz 3 uM.

Where two headings read alike, the source gives them in different places.

Inhibition data for 16 compounds are collected here from patent US9416115B2, “Fused heterocyclic compounds as ion channel modulators” (Gilead Sciences, Inc., priority 2013, dated 2016).

Chain of wild-type human cardiac sodium channel, hNav1.5 (Q14524 whole entry): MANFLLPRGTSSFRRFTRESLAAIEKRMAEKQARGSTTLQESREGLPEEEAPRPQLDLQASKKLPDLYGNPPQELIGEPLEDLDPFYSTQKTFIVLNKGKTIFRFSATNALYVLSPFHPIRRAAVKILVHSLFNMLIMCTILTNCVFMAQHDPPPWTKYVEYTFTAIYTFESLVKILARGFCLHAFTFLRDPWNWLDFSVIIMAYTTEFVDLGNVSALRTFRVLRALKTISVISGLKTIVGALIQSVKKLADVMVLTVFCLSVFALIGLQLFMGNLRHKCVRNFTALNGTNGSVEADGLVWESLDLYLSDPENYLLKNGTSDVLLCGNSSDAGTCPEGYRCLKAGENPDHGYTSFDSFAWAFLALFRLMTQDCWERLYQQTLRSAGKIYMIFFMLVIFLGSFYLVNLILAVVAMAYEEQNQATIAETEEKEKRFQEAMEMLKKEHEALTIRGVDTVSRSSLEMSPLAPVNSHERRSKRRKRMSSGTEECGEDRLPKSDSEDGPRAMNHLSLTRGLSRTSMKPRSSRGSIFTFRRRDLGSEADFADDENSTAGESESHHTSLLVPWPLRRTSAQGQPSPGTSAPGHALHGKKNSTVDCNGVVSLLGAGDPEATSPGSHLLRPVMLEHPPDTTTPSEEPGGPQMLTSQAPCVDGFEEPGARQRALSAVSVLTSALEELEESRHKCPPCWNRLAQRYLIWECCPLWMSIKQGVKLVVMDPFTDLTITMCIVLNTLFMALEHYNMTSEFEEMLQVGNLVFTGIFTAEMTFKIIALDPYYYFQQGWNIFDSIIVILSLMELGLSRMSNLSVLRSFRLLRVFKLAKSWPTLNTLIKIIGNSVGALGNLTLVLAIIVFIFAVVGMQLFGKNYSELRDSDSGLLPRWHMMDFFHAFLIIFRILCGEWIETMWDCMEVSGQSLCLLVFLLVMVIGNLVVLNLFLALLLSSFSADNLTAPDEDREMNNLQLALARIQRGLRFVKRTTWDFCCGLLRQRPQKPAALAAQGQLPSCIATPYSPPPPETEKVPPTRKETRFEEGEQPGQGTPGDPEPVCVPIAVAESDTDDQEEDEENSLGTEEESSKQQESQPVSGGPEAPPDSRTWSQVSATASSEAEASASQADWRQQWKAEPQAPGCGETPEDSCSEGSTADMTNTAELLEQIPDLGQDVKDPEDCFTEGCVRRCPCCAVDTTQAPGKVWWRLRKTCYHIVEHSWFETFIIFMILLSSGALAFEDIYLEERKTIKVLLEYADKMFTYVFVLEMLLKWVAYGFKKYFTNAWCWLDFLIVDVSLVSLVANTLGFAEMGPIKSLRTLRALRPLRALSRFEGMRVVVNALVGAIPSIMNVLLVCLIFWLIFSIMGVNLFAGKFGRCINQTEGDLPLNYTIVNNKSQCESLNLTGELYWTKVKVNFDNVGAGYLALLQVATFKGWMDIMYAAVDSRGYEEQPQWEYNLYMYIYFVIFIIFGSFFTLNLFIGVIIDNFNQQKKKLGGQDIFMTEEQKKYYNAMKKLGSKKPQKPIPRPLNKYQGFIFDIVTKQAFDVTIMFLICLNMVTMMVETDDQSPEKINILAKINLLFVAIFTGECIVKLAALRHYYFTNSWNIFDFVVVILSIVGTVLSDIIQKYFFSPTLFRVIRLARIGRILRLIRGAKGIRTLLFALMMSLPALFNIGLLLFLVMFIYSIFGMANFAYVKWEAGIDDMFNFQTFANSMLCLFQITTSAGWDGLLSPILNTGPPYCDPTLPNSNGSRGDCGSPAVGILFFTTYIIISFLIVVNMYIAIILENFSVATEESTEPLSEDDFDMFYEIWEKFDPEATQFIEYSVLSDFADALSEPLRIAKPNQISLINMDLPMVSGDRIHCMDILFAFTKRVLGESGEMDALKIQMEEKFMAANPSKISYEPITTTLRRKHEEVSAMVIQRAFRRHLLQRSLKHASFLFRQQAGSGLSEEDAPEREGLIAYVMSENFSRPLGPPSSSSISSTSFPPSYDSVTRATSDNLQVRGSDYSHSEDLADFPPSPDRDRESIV

On to `COCCOc1noc2ccc(-c3ccc(OC(F)(F)F)cc3)cc12` [Example 60, 3-(2-methoxyethoxy)-5-(4-(trifluoromethoxy)phenyl)benzo[d]isoxazole], for which the inhibition at 3 µM in assay [1] (setting [2]) was 30.6%; in assay [1] (setting [3]), less than 5%. The inhibition at 10 µM on hNaV1.2 (SCN2A) is less than 5%.

Regarding `Cc1nnc(COc2noc3ccc(-c4ccc(OC(F)(F)F)cc4)cc23)s1` [Example 101, 3-((5-methyl-1,3,4-thiadiazol-2-yl)methoxy)-5-(4-(trifluoromethoxy)phenyl)benzo[d]isoxazole], the inhibition at 3 µM in assay [1] (setting [2]) was 13.5%; in assay [1] (setting [3]) it was less than 5%. In addition, the inhibition at 10 µM on hNaV1.2 (SCN2A) came out at 30.5%.

On to `FC(F)(F)Oc1ccc(-c2ccc3onc(OC[C@H]4COCCN4)c3c2)cc1` [Example 114, (R)-3-(morpholin-3-ylmethoxy)-5-(4-(trifluoromethoxy)phenyl)benzo[d]isoxazole], for which the inhibition at 3 µM is 43.4% in assay [1] (setting [2]) and 33.3% in assay [1] (setting [3]). Also, the inhibition at 10 µM at hNaV1.2 (SCN2A) is 87%.

`FC(F)(F)Oc1cccc(-c2ccc3onc(OCc4ncccn4)c3c2)c1` [Example 10, 3-(pyrimidin-2-ylmethoxy)-5-(3-(trifluoromethoxy)phenyl)benzo[d]isoxazole]: the values for the inhibition at 3 µM in assay [1] (setting [2]) and in assay [1] (setting [3]) were 16.4% and 5.7%, respectively. The inhibition at 10 µM at hNaV1.2 (SCN2A) was less than 5%.

Consider `FC(F)(F)Oc1ccc(-c2ccc3onc(OCc4ncco4)c3c2)cc1` [Example 53, 3-(oxazol-2-ylmethoxy)-5-(4-(trifluoromethoxy)phenyl)benzo[d]isoxazole], for which the inhibition at 3 µM was 43.4% in assay [1] (setting [2]) and less than 5% in assay [1] (setting [3]). Besides, the inhibition at 10 µM at hNaV1.2 (SCN2A) was less than 5%.

Consider `CN1CCN(c2noc3ccc(-c4ccc(OC(F)(F)F)cc4)cc23)CC1` [Example 127, 3-(4-methylpiperazin-1-yl)-5-(4-(trifluoromethoxy)phenyl)benzo[d]isoxazole], for which the inhibition at 3 µM in assay [1] (setting [2]) came to 23.7%; in assay [1] (setting [3]), 25.1%. Also, the inhibition at 10 µM on hNaV1.2 (SCN2A) is 76.5%.

Regarding `COc1cc(OC(F)(F)F)ccc1-c1ccc2onc(OCc3ncccn3)c2c1` [Example 4, 5-(2-methoxy-4-(trifluoromethoxy)phenyl)-3-(pyrimidin-2-ylmethoxy)benzo[d]isoxazole], the inhibition at 3 µM in assay [1] (setting [2]) was 38%; in assay [1] (setting [3]), 17.9%. For the same compound, the inhibition at 10 µM on hNaV1.2 (SCN2A) was found to be 13.9%.

`FC(F)(F)Oc1ccc(-c2ccc3onc(N4CCOCC4)c3c2)cc1` [Example 130, 3-morpholino-5-(4-(trifluoromethoxy)phenyl)benzo[d]isoxazole]: the inhibition at 3 µM in assay [1] (setting [2]) was 9.2%; in assay [1] (setting [3]), less than 5%. Moreover, at hNaV1.2 (SCN2A), the inhibition at 10 µM was less than 5%.

With `Cc1nnc(COc2noc3ccc(-c4ccc(OC(F)(F)F)cc4)cc23)o1` [Example 99, 3-((5-methyl-1,3,4-oxadiazol-2-yl)methoxy)-5-(4-(trifluoromethoxy)phenyl)benzo[d]isoxazole], the inhibition at 3 µM in assay [1] (setting [2]) is 55.6%; in assay [1] (setting [3]), less than 5%. Moreover, the inhibition at 10 µM at hNaV1.2 (SCN2A) was determined as 50.5%.

`Nc1noc2ccc(-c3ccc(OC(F)(F)F)cc3)cc12` [Example 147, 5-(4-(trifluoromethoxy)phenyl)benzo[d]isoxazol-3-amine]: the inhibition at 3 µM in assay [1] (setting [2]) was 26%; in assay [1] (setting [3]) it was 3%. Further, on hNaV1.2 (SCN2A), the inhibition at 10 µM was determined as 20.4%.

Take `Cc1cnc(COc2noc3ccc(-c4ccc(OC(F)(F)F)cc4)cc23)cn1` [Example 73, 3-((5-methylpyrazin-2-yl)methoxy)-5-(4-(trifluoromethoxy)phenyl)benzo[d]isoxazole]: the figures for the inhibition at 3 µM in assay [1] (setting [2]) and in assay [1] (setting [3]) were 41.9% and less than 5%, respectively. For the same compound, the inhibition at 10 µM at hNaV1.2 (SCN2A) is less than 5%.

For the compound `FC(F)(F)Oc1ccc(-c2ccc3onc(NCC4CC4)c3c2)cc1` [Example 128, N-(cyclopropylmethyl)-5-(4-(trifluoromethoxy)phenyl)benzo[d]isoxazol-3-amine], the inhibition at 3 µM is 17.3% in assay [1] (setting [2]) and less than 5% in assay [1] (setting [3]). Further, the inhibition at 10 µM at hNaV1.2 (SCN2A) was less than 5%.

Take `COc1cc2onc(OCc3ncccn3)c2cc1-c1ccc(F)c(Cl)c1` [Example 15, 5-(3-chloro-4-fluorophenyl)-6-methoxy-3-(pyrimidin-2-ylmethoxy)benzo[d]isoxazole]: the inhibition at 3 µM in assay [1] (setting [2]) is 14.3%; in assay [1] (setting [3]), less than 5%. Moreover, the inhibition at 10 µM at hNaV1.2 (SCN2A) is less than 5%.

For `COc1cc(-c2ccc(OC(F)(F)F)cc2)cc2c(OCc3ncccn3)noc12` [Example 22, 7-methoxy-3-(pyrimidin-2-ylmethoxy)-5-(4-(trifluoromethoxy)phenyl)benzo[d]isoxazole], the inhibition at 3 µM in assay [1] (setting [2]) is 10.2%; in assay [1] (setting [3]), less than 5%. For the same compound, the inhibition at 10 µM at hNaV1.2 (SCN2A) is 40%.

Regarding `Cc1cc(-c2ccc(OC(F)(F)F)cc2)cc2c(OCc3ncccn3)noc12` [Example 16, 7-methyl-3-(pyrimidin-2-ylmethoxy)-5-(4-(trifluoromethoxy)phenyl)benzo[d]isoxazole], the inhibition at 3 µM was 35.8% in assay [1] (setting [2]) and less than 5% in assay [1] (setting [3]). In addition, the inhibition at 10 µM at hNaV1.2 (SCN2A) came out at 18%.

On to `FC(F)(F)Oc1ccc(-c2ccc3onc(OCc4ncccn4)c3c2)cc1` [Example 1, 3-(pyrimidin-2-ylmethoxy)-5-(4-(trifluoromethoxy)phenyl)benzo[d]isoxazole], for which the inhibition at 10 µM on hNaV1.2 (SCN2A) came out at 10.2%.
